Experimental data published in US20160120864A1, “Novel Pyrrole Derivatives” (priority 2013, published 2016).
pIC50: −log10 of the molar value. Structures can show the parent of a compound that is named as a salt.

Columns and labels:
pneumolysin = pneumolysin (Streptococcus pneumoniae serotype 2, UniProt Q04IN8); assay: Inhibition of the haemolytic activity of pneumolysin (sheep erythrocytes); assay type: cell-based
Protocol: A. Primary In Vitro Assay: Inhibition of the Haemolytic Activity of Pneumolysin
The basis of this assay is that when pneumolysin is added to red blood cells, it induces their lysis and leads to the release of haemoglobin. In the presence of an inhibitory compound, pneumolysin-induced lysis is abolished, the red blood cells pellet at the bottom of the microtitre plate well and the supernatant is clear. However, if the compound is not inhibitory, the red blood cells are lysed and haemoglobin is released into the supernatant.
Test compound solutions (typically at 5 mM in DMSO) were diluted 1:1 in 100% DMSO. The compounds were then two-fold serially diluted in 100% DMSO across 11 wells of 96-well round-bottomed microtitre plate. PBS was then added to all the wells to achieve a 1:10 dilution of the compound in PBS. Pneumolysin was then added at a concentration equal to its LD100. Plates were then incubated at 37° C. for 30-40 min. After the incubation period, an equal volume of 4% (v/v) sheep erythrocyte suspension was added to each well and the plates incubated again at 37° C., for at least 30 min. […] Following the incubation with the erythrocytes, the Absorbance at 595 nm of each well was measured and the data used to determine the IC50 for each test compound. The IC50 values were determined using non-linear regression curve fitting. […]

physchem [1] = assay type: physicochemical; conditions: buffer; PBS, 37.5° C.; read-out: Chemical stability in aqueous formulation (t½) (converted)
Protocol: (§1) Stability studies were carried out by dissolving 1-2 mg of compound in DMSO (1 mL) followed by addition of 0.4 mL of the resulting solution to stirred PBS solution (9.6 mL) at 37.5° C. A sample (ca. 0.5 mL) was immediately taken for HPLC analysis. Further samples were then taken for analysis at various timepoints thereafter. Half-lives were determined from the decrease in concentration of compound with respect to time.
as §1, with “performed” for “carried out”, “ml)” for “mL)”, “ml” for “mL”, “PBS” for “PBS solution”, “(-j” for “(ca.”, “time-points” for “timepoints”

physchem [2] = assay type: physicochemical; conditions: for solubility: aqueous buffer, thermodynamic from solid, PBS pH 7.2; for Solubility in aqueous formulations compatible with intravenous dosing (in words): aqueous formulations at the desired concentrations
Protocol: PBS solutions for solubility and stability studies were prepared by dissolving 1 Oxoid™ tablet (obtained from Thermo Scientific) in deionised water (100 mL).
Solubility studies were performed by charging a vial with 5-10 mg of compound followed by the addition of PBS solution to achieve a concentration of 100 mg/ml. If solubility was not observed, the solution was diluted to concentrations of 50 mg/ml, 25 mg/ml and 4 mg/ml consecutively until complete solubility was observed.

[3] = assay type: in vitro ADME; conditions: mouse plasma, 37° C., starting 10 μM
Protocol: The samples were then analysed by LC-MS/MS to obtain the amount of active compound appearing and prodrug derivative remaining over time.
The prodrug derivative of the invention was assessed in mouse plasma stability assay at a concentration of 10 μM. Test compounds were diluted in DMSO to a final stock concentration of 10 mM. For the purpose of the assay, the stocks prepared were further diluted in DMSO to a concentration of 400 μM and 5 μL were added to 195 μL of mouse plasma (pH 7.4) and then incubated at 37° C. The final concentration of DMSO in the plate was 2.5% (v/v). Reactions were terminated at 0, 15, 30, 60 and 120 min after incubation by adding 400 μL of acetonitrile containing 0.55 μM metoprolol and 1% (v/v) formic acid. The plate was then centrifuged at 3000 rpm, for 45 min, at 4° C. 80 μL of supernatant were transferred into a conical bottom 96 well glass coated plate. 40 μL of water were added prior to analysis for prodrug derivative and active species by LC-MS/MS. This assay was performed by a contract research organisation, Cyprotex Discovery Limited, UK, at the request of the inventors at Leicester.
The quantification of the prodrug compound remaining and the parent active compound appearing was performed as follows:
(1) The parent active compound was quantified using a 6 point calibration curve prepared in deactivated mouse plasma. (2) The percentage of prodrug compound remaining at each time point relative to 0 min sample was calculated from LC-MS/MS peak area ratios (compound peak area/internal standard peak area). This percentage was then used to determine the concentration of the prodrug compound at each time point in reference to the starting concentration (10 μM) at time 0 min.

Chain of pneumolysin (Q04IN8 whole entry): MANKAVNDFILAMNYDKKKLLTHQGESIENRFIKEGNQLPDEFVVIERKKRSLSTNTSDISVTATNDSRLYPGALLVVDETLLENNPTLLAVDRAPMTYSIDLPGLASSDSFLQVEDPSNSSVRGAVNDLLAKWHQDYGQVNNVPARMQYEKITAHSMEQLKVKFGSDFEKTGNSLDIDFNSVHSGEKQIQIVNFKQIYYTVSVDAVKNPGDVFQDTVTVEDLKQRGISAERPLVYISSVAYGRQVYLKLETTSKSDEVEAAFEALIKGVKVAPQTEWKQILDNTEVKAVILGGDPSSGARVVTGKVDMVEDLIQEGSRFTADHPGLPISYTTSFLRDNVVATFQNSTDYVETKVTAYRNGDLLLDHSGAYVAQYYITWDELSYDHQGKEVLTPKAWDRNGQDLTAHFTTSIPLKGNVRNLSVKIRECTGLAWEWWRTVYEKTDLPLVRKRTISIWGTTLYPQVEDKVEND

Molecule `COc1ccc(-n2c(C(=O)N3CCN(C)CC3)c(O)c(O)c2C(=O)N2CCN(C)CC2)cc1` [UL7-001, (3,4-Dihydroxy-1-(4-methoxyphenyl)-1H-pyrrole-2,5-diyl)bis((4-methylpiperazin-1-yl)methanone)] has a pIC50 (pneumolysin) of 6.52, a half-life (physchem [1]) of less than 0.5 h and a solubility (physchem [2]) of no less than 100 mg/mL. The “Solubility in aqueous formulations compatible with intravenous dosing (in words)” value (physchem [2]) was “readily soluble”.
In the case of `COc1ccc(-n2c(C(=O)N3CCN(C)CC3)c(OC(=O)C(C)C)c(OC(=O)C(C)C)c2C(=O)N2CCN(C)CC2)cc1` [UL7-002, 1-(4-Methoxyphenyl)-2,5-bis(4-methylpiperazine-1-carbonyl)-1H-pyrrole-3,4-diyl bis(2-methylpropanoate)dihydrochloride], the “Prodrug (UL7-002) concentration remaining, t0 min.” value ([3]; 0 min) was 10.00 µM, the “Prodrug (UL7-002) concentration remaining, t15 min.” value ([3]; 15 min) was 0.00 µM and the “Prodrug (UL7-002) concentration remaining, t30 min.” value ([3]; 30 min) was 0.01 µM. The “Prodrug (UL7-002) concentration remaining, t60 min.” value ([3]; 60 min) was 0.00 µM, the “Prodrug (UL7-002) concentration remaining, t120 min.” value ([3]; 120 min) was 0.00 µM and the pIC50 (pneumolysin) was 5.17. The half-life (physchem [1]) was 47 h, the solubility (physchem [2]) was no less than 100 mg/mL and the “Solubility in aqueous formulations compatible with intravenous dosing (in words)” value (physchem [2]) was “readily soluble”.
